Results taken from the kinase profiling compilation of Christmann-Franck et al. (2016).
Blank lines part the entries; values can stand above or below the compound they belong to.

Assays:
Assay in all cases: Caliper, Mobility shift assay off-chip
PRKCQ (human) = PRKCQ (human) (UniProt Q04759)
INSR (human) = INSR (human) (UniProt P06213)
EGFR (human) = EGFR (human) (UniProt P00533)
FGFR1 (human) = FGFR1 (human) (UniProt P11362)
DYRK1A (human) = DYRK1A (human) (UniProt Q13627)
PRKCG (human) = PRKCG (human) (UniProt P05129)
PRKCD (human) = PRKCD (human) (UniProt Q05655)
MAPK12 (human) = MAPK12 (human) (UniProt P53778)
SGK3 (human) = SGK3 (human) (UniProt Q96BR1)
MAP4K4 (human) = MAP4K4 (human) (UniProt O95819)
ROCK2 (human) = ROCK2 (human) (UniProt O75116)
CHEK1 (human) = CHEK1 (human) (UniProt O14757)
IKBKB (human) = IKBKB (human) (UniProt O14920)
CSNK1A1 (human) = CSNK1A1 (human) (UniProt P48729)
BMX (human) = BMX (human) (UniProt P51813)
SRC (human) = SRC (human) (UniProt P12931)
[1] = tested on: FGFR2 (human), P21802 [N549H]
SGK2 (human) = SGK2 (human) (UniProt Q9HBY8)
PRKCH (human) = PRKCH (human) (UniProt P24723)
ABL1 (human) = ABL1 (human) (UniProt P00519)
GSK3B (human) = GSK3B (human) (UniProt P49841)
PRKACA (human) = PRKACA (human) (UniProt P17612)
MAPKAPK5 (human) = MAPKAPK5 (human) (UniProt Q8IW41)
PDGFRA (human) = PDGFRA (human) (UniProt P16234)
IGF1R (human) = IGF1R (human) (UniProt P08069)
RAF1 (human) = RAF1 (human) (UniProt P04049)

Chain of MAPK12 (human) (P53778 whole entry, looked up): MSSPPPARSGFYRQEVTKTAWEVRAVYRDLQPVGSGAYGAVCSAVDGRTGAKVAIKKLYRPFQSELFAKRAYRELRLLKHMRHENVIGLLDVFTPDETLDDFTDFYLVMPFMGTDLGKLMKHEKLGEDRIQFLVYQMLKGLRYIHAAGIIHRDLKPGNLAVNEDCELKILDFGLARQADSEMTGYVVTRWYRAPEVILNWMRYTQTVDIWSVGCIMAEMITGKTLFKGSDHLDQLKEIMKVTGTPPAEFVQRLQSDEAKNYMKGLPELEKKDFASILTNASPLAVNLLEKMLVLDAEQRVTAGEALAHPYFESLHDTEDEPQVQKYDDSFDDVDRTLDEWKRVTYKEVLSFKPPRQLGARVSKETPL
Chain of ROCK2 (human) (O75116 whole entry, looked up): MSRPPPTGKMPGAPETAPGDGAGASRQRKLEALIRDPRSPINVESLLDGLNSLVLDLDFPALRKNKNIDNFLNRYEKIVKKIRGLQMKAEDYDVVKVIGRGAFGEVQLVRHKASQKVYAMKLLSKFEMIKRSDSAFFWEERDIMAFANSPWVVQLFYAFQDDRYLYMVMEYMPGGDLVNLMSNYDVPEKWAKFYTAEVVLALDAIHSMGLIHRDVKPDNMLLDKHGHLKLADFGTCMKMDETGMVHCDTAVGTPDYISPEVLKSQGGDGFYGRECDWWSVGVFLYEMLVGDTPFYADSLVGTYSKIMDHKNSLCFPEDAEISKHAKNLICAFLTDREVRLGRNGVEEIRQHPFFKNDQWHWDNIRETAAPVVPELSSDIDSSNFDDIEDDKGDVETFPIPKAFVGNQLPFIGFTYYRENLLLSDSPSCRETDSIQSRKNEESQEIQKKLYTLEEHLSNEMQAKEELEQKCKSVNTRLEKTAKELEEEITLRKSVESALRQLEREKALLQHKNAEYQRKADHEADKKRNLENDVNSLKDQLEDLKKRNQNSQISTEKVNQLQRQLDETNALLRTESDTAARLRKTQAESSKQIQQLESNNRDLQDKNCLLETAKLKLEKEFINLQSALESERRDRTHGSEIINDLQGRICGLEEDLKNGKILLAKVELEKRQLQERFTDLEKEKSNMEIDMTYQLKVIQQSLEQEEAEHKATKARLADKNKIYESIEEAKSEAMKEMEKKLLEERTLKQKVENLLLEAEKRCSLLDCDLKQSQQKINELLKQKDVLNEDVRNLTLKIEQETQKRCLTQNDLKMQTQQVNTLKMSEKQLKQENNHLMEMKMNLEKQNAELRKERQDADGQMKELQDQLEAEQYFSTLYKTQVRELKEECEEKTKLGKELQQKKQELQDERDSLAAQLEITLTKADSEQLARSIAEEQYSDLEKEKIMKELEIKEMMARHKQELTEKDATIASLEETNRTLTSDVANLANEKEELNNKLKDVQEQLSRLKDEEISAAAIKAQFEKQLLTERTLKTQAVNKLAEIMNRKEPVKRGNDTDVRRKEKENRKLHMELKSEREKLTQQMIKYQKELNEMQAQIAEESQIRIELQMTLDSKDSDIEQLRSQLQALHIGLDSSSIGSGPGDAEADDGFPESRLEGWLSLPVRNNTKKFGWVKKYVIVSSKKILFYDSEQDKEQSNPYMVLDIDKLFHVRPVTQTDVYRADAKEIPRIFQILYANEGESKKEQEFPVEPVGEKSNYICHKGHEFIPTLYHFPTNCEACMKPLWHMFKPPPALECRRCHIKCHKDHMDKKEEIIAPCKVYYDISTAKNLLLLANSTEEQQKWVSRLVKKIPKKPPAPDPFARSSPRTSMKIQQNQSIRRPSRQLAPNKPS
Chain of PRKCH (human) (P24723 whole entry, looked up): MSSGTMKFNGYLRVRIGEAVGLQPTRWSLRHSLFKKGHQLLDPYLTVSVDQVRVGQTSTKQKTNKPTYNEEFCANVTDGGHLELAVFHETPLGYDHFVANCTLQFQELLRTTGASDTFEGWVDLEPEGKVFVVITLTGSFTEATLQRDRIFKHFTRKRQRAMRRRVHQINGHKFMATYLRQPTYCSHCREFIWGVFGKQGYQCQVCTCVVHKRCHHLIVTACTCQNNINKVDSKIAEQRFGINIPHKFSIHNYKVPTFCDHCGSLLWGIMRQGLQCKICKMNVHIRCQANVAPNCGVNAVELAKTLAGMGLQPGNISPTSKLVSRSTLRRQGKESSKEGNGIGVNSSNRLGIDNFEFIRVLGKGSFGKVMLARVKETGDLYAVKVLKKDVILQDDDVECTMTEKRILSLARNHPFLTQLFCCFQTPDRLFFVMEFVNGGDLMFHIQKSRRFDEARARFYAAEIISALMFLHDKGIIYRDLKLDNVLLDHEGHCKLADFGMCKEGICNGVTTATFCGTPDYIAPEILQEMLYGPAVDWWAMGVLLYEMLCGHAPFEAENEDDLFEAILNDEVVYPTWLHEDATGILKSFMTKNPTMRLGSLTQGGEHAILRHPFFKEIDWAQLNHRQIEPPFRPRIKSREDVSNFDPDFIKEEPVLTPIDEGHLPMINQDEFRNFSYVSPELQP
Chain of GSK3B (human) (P49841 whole entry, looked up): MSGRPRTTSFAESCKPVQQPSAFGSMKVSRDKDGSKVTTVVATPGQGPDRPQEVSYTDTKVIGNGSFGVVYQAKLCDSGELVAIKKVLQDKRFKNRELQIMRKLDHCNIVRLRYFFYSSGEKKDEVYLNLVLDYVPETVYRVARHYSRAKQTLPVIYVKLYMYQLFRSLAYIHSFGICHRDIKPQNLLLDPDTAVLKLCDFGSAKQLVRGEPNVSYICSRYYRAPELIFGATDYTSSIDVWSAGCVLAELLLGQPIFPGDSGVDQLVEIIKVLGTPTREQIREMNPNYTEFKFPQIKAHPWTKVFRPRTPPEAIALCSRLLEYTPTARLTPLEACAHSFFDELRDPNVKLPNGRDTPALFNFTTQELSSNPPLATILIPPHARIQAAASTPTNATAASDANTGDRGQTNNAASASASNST
Chain of PRKCD (human) (Q05655 whole entry, looked up): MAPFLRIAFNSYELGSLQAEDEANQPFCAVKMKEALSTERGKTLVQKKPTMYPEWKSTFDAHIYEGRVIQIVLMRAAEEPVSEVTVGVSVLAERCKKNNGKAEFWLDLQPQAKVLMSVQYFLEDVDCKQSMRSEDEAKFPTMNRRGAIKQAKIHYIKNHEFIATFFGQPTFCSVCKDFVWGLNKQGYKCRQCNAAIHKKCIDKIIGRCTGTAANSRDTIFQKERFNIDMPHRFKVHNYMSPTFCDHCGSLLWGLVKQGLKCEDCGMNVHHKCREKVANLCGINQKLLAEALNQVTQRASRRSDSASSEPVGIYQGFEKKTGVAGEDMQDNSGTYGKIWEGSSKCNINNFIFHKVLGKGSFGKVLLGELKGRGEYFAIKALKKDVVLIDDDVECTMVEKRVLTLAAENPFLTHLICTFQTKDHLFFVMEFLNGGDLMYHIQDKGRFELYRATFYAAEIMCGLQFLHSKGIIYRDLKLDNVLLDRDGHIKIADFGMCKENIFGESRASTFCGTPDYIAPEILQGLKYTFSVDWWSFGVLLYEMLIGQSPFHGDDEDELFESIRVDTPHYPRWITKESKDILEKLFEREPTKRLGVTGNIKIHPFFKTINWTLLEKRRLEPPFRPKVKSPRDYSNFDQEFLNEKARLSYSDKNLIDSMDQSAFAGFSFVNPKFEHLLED
Chain of SGK3 (human) (Q96BR1 whole entry, looked up): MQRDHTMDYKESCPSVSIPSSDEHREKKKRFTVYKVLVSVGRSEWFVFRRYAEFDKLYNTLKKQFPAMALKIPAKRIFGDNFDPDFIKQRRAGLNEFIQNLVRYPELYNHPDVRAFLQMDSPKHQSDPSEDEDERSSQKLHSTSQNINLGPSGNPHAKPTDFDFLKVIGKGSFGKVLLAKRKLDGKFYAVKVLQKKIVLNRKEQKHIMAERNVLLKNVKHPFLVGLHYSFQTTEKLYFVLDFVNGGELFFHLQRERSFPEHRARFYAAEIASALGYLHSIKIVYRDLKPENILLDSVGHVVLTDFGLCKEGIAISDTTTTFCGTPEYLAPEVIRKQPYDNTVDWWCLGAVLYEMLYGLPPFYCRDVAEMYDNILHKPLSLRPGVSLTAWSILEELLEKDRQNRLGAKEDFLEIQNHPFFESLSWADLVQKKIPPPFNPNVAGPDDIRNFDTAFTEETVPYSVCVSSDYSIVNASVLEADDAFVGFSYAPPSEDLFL
Chain of SRC (human) (P12931 whole entry, looked up): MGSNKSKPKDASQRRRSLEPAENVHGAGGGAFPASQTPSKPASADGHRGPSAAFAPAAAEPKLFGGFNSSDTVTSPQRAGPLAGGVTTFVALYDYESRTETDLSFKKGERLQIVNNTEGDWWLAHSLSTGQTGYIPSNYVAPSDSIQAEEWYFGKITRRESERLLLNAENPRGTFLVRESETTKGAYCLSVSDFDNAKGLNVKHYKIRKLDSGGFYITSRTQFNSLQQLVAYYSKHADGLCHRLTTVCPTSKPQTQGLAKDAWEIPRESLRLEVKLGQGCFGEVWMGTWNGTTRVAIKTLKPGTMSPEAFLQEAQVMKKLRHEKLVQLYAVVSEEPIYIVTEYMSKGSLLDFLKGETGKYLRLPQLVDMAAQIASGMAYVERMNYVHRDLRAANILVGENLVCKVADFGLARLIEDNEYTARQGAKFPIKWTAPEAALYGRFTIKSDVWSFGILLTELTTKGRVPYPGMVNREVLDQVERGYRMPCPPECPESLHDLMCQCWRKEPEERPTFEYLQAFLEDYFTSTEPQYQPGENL
Chain of MAPKAPK5 (human) (Q8IW41 whole entry, looked up): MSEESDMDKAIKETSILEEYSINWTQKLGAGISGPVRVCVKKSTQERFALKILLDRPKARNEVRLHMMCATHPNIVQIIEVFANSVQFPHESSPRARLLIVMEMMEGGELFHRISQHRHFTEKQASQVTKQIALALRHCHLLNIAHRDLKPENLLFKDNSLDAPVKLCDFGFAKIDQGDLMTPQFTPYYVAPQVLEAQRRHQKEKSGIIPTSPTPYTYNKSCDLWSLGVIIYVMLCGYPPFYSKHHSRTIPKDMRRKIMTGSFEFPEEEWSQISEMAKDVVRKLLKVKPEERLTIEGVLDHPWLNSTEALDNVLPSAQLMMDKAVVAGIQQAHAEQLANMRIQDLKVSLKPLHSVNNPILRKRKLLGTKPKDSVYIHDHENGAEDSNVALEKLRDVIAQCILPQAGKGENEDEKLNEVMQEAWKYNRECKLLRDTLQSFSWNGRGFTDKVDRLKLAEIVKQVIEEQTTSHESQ

inhibition (PRKCQ (human); compound 0.1 µM): -11.5%
inhibition (PRKCQ (human); compound 1.0 µM): -19.7%
inhibition (INSR (human); compound 0.1 µM): 1.4%
inhibition (INSR (human); compound 1.0 µM): 3.5%
inhibition (EGFR (human); compound 0.1 µM): -5.8%
inhibition (FGFR1 (human); compound 0.1 µM): 12.3%
inhibition (FGFR1 (human); compound 1.0 µM): 61.2%
inhibition (DYRK1A (human); compound 0.1 µM): -4.6%
inhibition (DYRK1A (human); compound 1.0 µM): -2.8%
inhibition (PRKCG (human); compound 0.1 µM): -2%
inhibition (PRKCG (human); compound 1.0 µM): -3.4%
inhibition (PRKCD (human); compound 0.1 µM): -36%
inhibition (PRKCD (human); compound 1.0 µM): 2.1%
inhibition (MAPK12 (human); compound 0.1 µM): -6.6%
inhibition (MAPK12 (human); compound 1.0 µM): 0.8%
inhibition (SGK3 (human); compound 0.1 µM): -10.4%
inhibition (SGK3 (human); compound 1.0 µM): 6.2%
inhibition (MAP4K4 (human); compound 0.1 µM): -2%
inhibition (MAP4K4 (human); compound 1.0 µM): 10.6%
inhibition (ROCK2 (human); compound 0.1 µM): -6.7%
inhibition (ROCK2 (human); compound 1.0 µM): -5.4%
inhibition (CHEK1 (human); compound 0.1 µM): 2%
inhibition (CHEK1 (human); compound 1.0 µM): 2.5%
inhibition (IKBKB (human); compound 0.1 µM): 1.4%
inhibition (IKBKB (human); compound 1.0 µM): -1.2%
inhibition (CSNK1A1 (human); compound 0.1 µM): -8.6%
inhibition (CSNK1A1 (human); compound 1.0 µM): -0.9%
inhibition (BMX (human); compound 0.1 µM): -7.2%
inhibition (BMX (human); compound 1.0 µM): 8.8%
inhibition (SRC (human); compound 0.1 µM): -0.3%
inhibition (SRC (human); compound 1.0 µM): 4.8%
inhibition ([1]; compound 0.1 µM): 5.5%
inhibition ([1]; compound 1.0 µM): 15.5%
inhibition (SGK2 (human); compound 0.1 µM): -0.4%
inhibition (SGK2 (human); compound 1.0 µM): -3.6%
inhibition (PRKCH (human); compound 0.1 µM): -8.3%
inhibition (PRKCH (human); compound 1.0 µM): -5.7%
inhibition (ABL1 (human); compound 0.1 µM): 0.2%
inhibition (ABL1 (human); compound 1.0 µM): 11.6%
inhibition (GSK3B (human); compound 0.1 µM): -3.5%
inhibition (GSK3B (human); compound 1.0 µM): 3%
inhibition (PRKACA (human); compound 0.1 µM): -13.6%
inhibition (PRKACA (human); compound 1.0 µM): 2.4%
inhibition (MAPKAPK5 (human); compound 0.1 µM): -20.9%
inhibition (MAPKAPK5 (human); compound 1.0 µM): 4.4%
inhibition (PDGFRA (human); compound 0.1 µM): -13%
inhibition (IGF1R (human); compound 0.1 µM): -23.8%
inhibition (IGF1R (human); compound 1.0 µM): -10%
inhibition (RAF1 (human); compound 0.1 µM): 5.1%
inhibition (RAF1 (human); compound 1.0 µM): 1.4%
Structure (SMILES): Cn1cc(-c2cnc3ccc4ccc(CS(=O)(=O)CCc5ccccn5)cc4c(=O)c3c2)cn1

inhibition (PRKCQ (human); compound 0.1 µM): 5.2%
inhibition (INSR (human); compound 0.1 µM): 12%
inhibition (INSR (human); compound 1.0 µM): 6.4%
inhibition (EGFR (human); compound 0.1 µM): 13.3%
inhibition (EGFR (human); compound 1.0 µM): 9.2%
inhibition (DYRK1A (human); compound 0.1 µM): 6.2%
inhibition (DYRK1A (human); compound 1.0 µM): 32.9%
inhibition (PRKCG (human); compound 0.1 µM): -1.4%
inhibition (PRKCD (human); compound 0.1 µM): 5.1%
inhibition (MAPK12 (human); compound 0.1 µM): -5.4%
inhibition (MAPK12 (human); compound 1.0 µM): 2.9%
inhibition (SGK3 (human); compound 0.1 µM): -1.4%
inhibition (SGK3 (human); compound 1.0 µM): 3.9%
inhibition (MAP4K4 (human); compound 0.1 µM): 7.1%
inhibition (MAP4K4 (human); compound 1.0 µM): 1.8%
inhibition (ROCK2 (human); compound 0.1 µM): 3%
inhibition (ROCK2 (human); compound 1.0 µM): 2%
inhibition (CHEK1 (human); compound 0.1 µM): -7.9%
inhibition (CHEK1 (human); compound 1.0 µM): 3.1%
inhibition (IKBKB (human); compound 0.1 µM): -12%
inhibition (IKBKB (human); compound 1.0 µM): 4.2%
inhibition (CSNK1A1 (human); compound 0.1 µM): -2.8%
inhibition (CSNK1A1 (human); compound 1.0 µM): -4.1%
inhibition (BMX (human); compound 0.1 µM): 1.6%
inhibition (SRC (human); compound 0.1 µM): 0.2%
inhibition (SRC (human); compound 1.0 µM): 1.3%
inhibition ([1]; compound 0.1 µM): 15.5%
inhibition ([1]; compound 1.0 µM): 40.5%
inhibition (SGK2 (human); compound 0.1 µM): -0.9%
inhibition (SGK2 (human); compound 1.0 µM): 23.1%
inhibition (PRKCH (human); compound 0.1 µM): -6.7%
inhibition (PRKCH (human); compound 1.0 µM): 0.2%
inhibition (ABL1 (human); compound 0.1 µM): 6.9%
inhibition (ABL1 (human); compound 1.0 µM): 22.9%
inhibition (GSK3B (human); compound 0.1 µM): -2.7%
inhibition (GSK3B (human); compound 1.0 µM): 9.3%
inhibition (PRKACA (human); compound 0.1 µM): -5.5%
inhibition (PRKACA (human); compound 1.0 µM): -1.1%
inhibition (MAPKAPK5 (human); compound 0.1 µM): 1.3%
inhibition (MAPKAPK5 (human); compound 1.0 µM): -7.9%
inhibition (PDGFRA (human); compound 0.1 µM): -19.1%
inhibition (PDGFRA (human); compound 1.0 µM): 15.5%
inhibition (IGF1R (human); compound 0.1 µM): -3.7%
inhibition (IGF1R (human); compound 1.0 µM): 1.8%
inhibition (RAF1 (human); compound 0.1 µM): 6.2%
inhibition (RAF1 (human); compound 1.0 µM): -3.8%
Structure (SMILES): Cn1cc(-c2cnc3ccc4ccc(CS(N)(=O)=O)cc4c(=O)c3c2)cn1
